Laboratory results taken from ChEMBL document CHEMBL1201862, “PubChem BioAssay data set” (2004).
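Values below derive from 48-hour exposures of cells grown in 96-well plates, with endpoints linearly interpolated between the two concentrations bracketing the appropriate inhibition level. GI50: concentration for 50% inhibition of growth.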 Activity calls are given as the source filed them. Rule as the data show it: active = GI50 up to about 1.1 µM and inactive = higher.

What was measured:
Assay in all cases: inhibition of tumour cell growth, NCI panel, 48 h
HCT-15 = tested on: HCT-15
COLO 205 = tested on: COLO 205
OVCAR-3 = tested on: OVCAR-3
NCI-H23 = tested on: NCI-H23
OVCAR-8 = tested on: OVCAR-8
UACC-257 = tested on: UACC-257
K562 = tested on: K562
NCI-H522 = tested on: NCI-H522
DU-145 = tested on: DU-145
MCF7 = tested on: MCF7
RPMI-8226 = tested on: RPMI-8226
HCC 2998 = tested on: HCC 2998
SF-539 = tested on: SF-539
MOLT-4 = tested on: MOLT-4
SW-620 = tested on: SW-620
A549 = tested on: A549
SK-MEL-2 = tested on: SK-MEL-2
BT-549 = tested on: BT-549
OVCAR-4 = tested on: OVCAR-4
NCI-H460 = tested on: NCI-H460

SMILES	GI50 (HCT-15) [µM]	GI50 (COLO 205)	GI50 (OVCAR-3)	GI50 (NCI-H23)	GI50 (OVCAR-8)	GI50 (UACC-257)	GI50 (K562)	GI50 (NCI-H522)	GI50 (DU-145)	GI50 (MCF7)	GI50 (RPMI-8226)	GI50 (HCC 2998)	GI50 (SF-539)	GI50 (MOLT-4)	GI50 (SW-620)	GI50 (A549)	GI50 (SK-MEL-2)	GI50 (BT-549)	GI50 (OVCAR-4)	GI50 (NCI-H460)
O=c1[nH]nc(Cc2ccc([N+](=O)[O-])cc2)[nH]1	> 100	> 100 µM (inactive)	> 100 µM (inactive)	> 100 µM (inactive)	> 100 µM (inactive)	> 100 µM (inactive)	> 100 µM (inactive)	> 100 µM (inactive)	> 100 µM (inactive)	> 100 µM (inactive)	> 100 µM (inactive)	> 100 µM (inactive)	> 100 µM (inactive)	> 100 µM (inactive)	> 100 µM (inactive)	> 100 µM (inactive)	> 100 µM (inactive)	> 100 µM (inactive)	> 100 µM (inactive)	> 100 µM (inactive)
N=C(N)NCCCCCCC(=O)NC(O)C(=O)NCCCCNCCCN (stereo not given)	656	600 µM (inactive)	474 µM (inactive)	684 µM (inactive)	641 µM (inactive)	> 750 µM (inactive)	551 µM (inactive)	479 µM (inactive)	> 750 µM (inactive)	745 µM (inactive)	483 µM (inactive)	> 562 µM (inactive)	> 628 µM (inactive)	659 µM (inactive)	> 750 µM (inactive)	473 µM (inactive)	505 µM (inactive)	372 µM (inactive)	550 µM (inactive)	718 µM (inactive)
CCOC(C/N=c1/nc(N(C)C)ss1)OCC	25.8	0.986 µM (active)	9.89 µM (inactive)	33.5 µM (inactive)	28.1 µM (inactive)	26.4 µM (inactive)	0.354 µM (active)	0.0998 µM (active)	> 71.1 µM (inactive)	2.5 µM (inactive)	1.16 µM (inactive)	> 77.4 µM (inactive)	17.4 µM (inactive)	0.593 µM (active)	2.6 µM (inactive)	57 µM (inactive)	13.8 µM (inactive)	23.4 µM (inactive)	16.6 µM (inactive)	4.31 µM (inactive)
CCOC(=O)Nc1cc2ccccc2c(/N=N/c2ccccc2)c1O	> 100	> 100 µM (inactive)	> 100 µM (inactive)	> 100 µM (inactive)	37.2 µM (inactive)	> 100 µM (inactive)	> 100 µM (inactive)	29.6 µM (inactive)	> 100 µM (inactive)	56.4 µM (inactive)	> 100 µM (inactive)	> 100 µM (inactive)	13 µM (inactive)	> 100 µM (inactive)	> 100 µM (inactive)	> 100 µM (inactive)	> 100 µM (inactive)	> 100 µM (inactive)	20.2 µM (inactive)	> 100 µM (inactive)
O=C1CC=C2C3CC4N(CCC45c4ccccc4N1C25)C/C3=C\CO (stereo not given)	> 100	> 100 µM (inactive)	> 100 µM (inactive)	> 100 µM (inactive)	> 100 µM (inactive)	> 100 µM (inactive)	> 100 µM (inactive)	> 100 µM (inactive)	> 100 µM (inactive)	> 100 µM (inactive)	> 100 µM (inactive)	> 100 µM (inactive)	> 100 µM (inactive)	> 100 µM (inactive)	> 100 µM (inactive)	> 100 µM (inactive)	> 100 µM (inactive)	> 100 µM (inactive)	> 100 µM (inactive)	> 100 µM (inactive)
COc1ccc2c(c1OC)C(Br)CCC(Br)(Br)C2=O (stereo not given)	5.57	3.02 µM (inactive)	15.8 µM (inactive)	7.21 µM (inactive)	7.45 µM (inactive)	14.6 µM (inactive)	2.79 µM (inactive)	1.58 µM (inactive)	12.4 µM (inactive)	9.02 µM (inactive)	4.81 µM (inactive)	11.6 µM (inactive)	3.17 µM (inactive)	1.75 µM (inactive)	2.25 µM (inactive)	13.6 µM (inactive)	14.4 µM (inactive)	7.87 µM (inactive)	6 µM (inactive)	16 µM (inactive)
CCCCCCCCCCCCCCCC(=O)Nc1ccn(C2OC(CO)C(O)C2O)c(=O)n1 (stereo not given)	17.7	37.9 µM (inactive)	34.2 µM (inactive)	2.05 µM (inactive)	6.55 µM (inactive)	78.3 µM (inactive)	9.75 µM (inactive)	2.25 µM (inactive)	3.38 µM (inactive)	0.94 µM (active)	42.2 µM (inactive)	25.1 µM (inactive)	57.7 µM (inactive)	0.131 µM (active)	> 90.4 µM (inactive)	2.62 µM (inactive)	> 100 µM (inactive)	33.7 µM (inactive)	> 100 µM (inactive)	0.78 µM (active)
